Legend:
[1] = biological target: T1, TR-α (Homo sapiens, UniProt P10827); test: In vitro TR-α activity (in-house protocol); format: cell-based
T1 sequence (P10827 1-410 isoform P10827-2): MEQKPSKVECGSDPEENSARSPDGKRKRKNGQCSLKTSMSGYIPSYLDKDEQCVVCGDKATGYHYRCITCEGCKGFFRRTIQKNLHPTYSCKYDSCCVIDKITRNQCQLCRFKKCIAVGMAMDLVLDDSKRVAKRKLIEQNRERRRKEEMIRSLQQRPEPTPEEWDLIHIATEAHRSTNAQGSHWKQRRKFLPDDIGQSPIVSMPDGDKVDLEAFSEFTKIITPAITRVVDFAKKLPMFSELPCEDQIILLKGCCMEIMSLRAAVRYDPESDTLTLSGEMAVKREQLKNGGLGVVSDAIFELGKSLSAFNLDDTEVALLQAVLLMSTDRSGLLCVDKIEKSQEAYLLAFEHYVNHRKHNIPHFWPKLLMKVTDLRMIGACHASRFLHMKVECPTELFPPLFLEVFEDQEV
Description: (§1) Invitro TR-α & TR-β activities were determined as per in-house protocols and the results of representative compounds are provided in tables 1 & 2 below as a proof of the efficacies of the novel class of compounds disclosed above.

[2] = biological target: T2, TR-β (Homo sapiens, UniProt P10828); test: In vitro TR-β activity (in-house protocol); format: cell-based; conditions: for fold induction at 0.01 µM: Conc. 10 nM; for fold induction at 0.01 µM / fold induction at 0.1 µM / fold induction at 1 µM / fold induction at 0.001 µM: read-out: TR-β Fold Induction w.r.t T3(100 nm); for fold induction at 0.1 µM: Conc. 100 nM; for fold induction at 1 µM: Conc. 1000 nM; for fold induction at 0.001 µM: Conc. 1 nM
T2 sequence (P10828 1-461): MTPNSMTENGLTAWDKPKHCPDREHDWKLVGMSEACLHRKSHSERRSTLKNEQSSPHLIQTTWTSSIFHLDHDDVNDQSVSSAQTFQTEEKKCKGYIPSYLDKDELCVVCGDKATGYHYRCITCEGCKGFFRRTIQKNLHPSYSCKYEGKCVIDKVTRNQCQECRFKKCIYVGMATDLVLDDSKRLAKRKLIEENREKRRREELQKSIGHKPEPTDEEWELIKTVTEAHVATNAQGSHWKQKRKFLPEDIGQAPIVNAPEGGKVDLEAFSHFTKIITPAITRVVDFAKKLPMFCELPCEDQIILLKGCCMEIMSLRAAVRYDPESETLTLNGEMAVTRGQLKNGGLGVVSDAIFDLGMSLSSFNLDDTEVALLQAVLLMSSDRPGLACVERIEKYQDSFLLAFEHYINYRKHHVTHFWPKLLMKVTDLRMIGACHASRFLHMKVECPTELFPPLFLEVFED
Description: as §1

Compound | EC50 [1] [nM] | EC50 [2] [nM] | TR-α Fold Induction w.r.t T3(100 nm) ([1]; Conc. 10 nM) | TR-α Fold Induction w.r.t T3(100 nm) ([1]; Conc. 100 nM) | TR-α Fold Induction w.r.t T3(100 nm) ([1]; Conc. 1000 nM) | fold induction at 0.01 µM [2] | fold induction at 0.1 µM [2] | fold induction at 1 µM [2] | TR-α Fold Induction w.r.t T3(100 nm) ([1]; Conc. 1 nM) | fold induction at 0.001 µM [2]
CCOC(=O)N(CC(=O)O)c1cc(Cl)c(Oc2ccc(O)c(C(C)C)c2)c(Cl)c1 [Example 1, {[3,5-Dichloro-4-(4-hydroxy-3-isopropyl-phenoxy)-phenyl]-ethoxycarbonyl-amino}-acetic acid] | 440 | 146 |  |  |  |  |  |  |  | 
CCOC(=O)N(CC(=O)O)c1cc(Cl)c(Oc2ccc(O)c(C(C)CC)c2)c(Cl)c1 (stereo not drawn) [Example 2, {[4-(3-sec-Butyl-4-hydroxy-phenoxy)-3,5-dichloro-phenyl]-ethoxycarbonyl-amino}-acetic acid] | 119 | 162 |  |  |  |  |  |  |  | 
CCOC(=O)N(CC(=O)O)c1cc(Cl)c(Oc2ccc(O)c(Cc3ccccc3)c2)c(Cl)c1 [Example 3, {[4-(3-Benzyl-4-hydroxy-phenoxy)-3,5-dichloro-phenyl]-ethoxycarbonyl-amino}-acetic acid] | 274 | 89 |  |  |  |  |  |  |  | 
CCOC(=O)N(CC(=O)O)c1cc(Cl)c(Oc2ccc(O)c(C(C)(C)C)c2)c(Cl)c1 [Example 13, {[4-(3-tert-Butyl-4-hydroxy-phenoxy)-3,5-dichloro-phenyl]-ethoxycarbonyl-amino}-acetic acid] |  |  | 49.80 | 96.60 | 72.90 | 44.2 | 80.6 | 75 |  | 
CCOC(=O)N(CC(=O)O)c1cc(Cl)c(Oc2ccc(O)c(-c3ccccc3)c2)c(Cl)c1 [Example 14, {[3,5-Dichloro-4-(6-hydroxy-biphenyl-3-yloxy)-phenyl]-ethoxycarbonyl-amino}-acetic acid] |  |  | 11.10 | 36.30 | 45.90 | 16.4 | 58.5 | 77.3 |  | 
CCOC(=O)N(CC(=O)O)c1cc(Cl)c(Oc2ccc(O)c(C(=O)c3ccc(F)cc3)c2)c(Cl)c1 [Example 15, ({3,5-Dichloro-4-[3-(4-fluoro-benzoyl)-4-hydroxy-phenoxy]-phenyl}-ethoxycarbonyl-amino)-acetic acid] |  |  | 11.34 | 39.66 | 33.74 | 23.5 | 70.5 | 66.8 |  | 
CCOC(=O)N(CC(=O)O)c1cc(Cl)c(Oc2ccc(O)c(C(=O)c3ccc(Cl)s3)c2)c(Cl)c1 [Example 17, ({3,5-Dichloro-4-[3-(5-chloro-thiophene-2-carbonyl)-4-hydroxy-phenoxy]-phenyl}-ethoxycarbonyl-amino)-acetic acid] |  |  | 21.19 | 51.82 | 53.12 | 27.7 | 72.8 | 77.9 |  | 
CCOC(=O)N(CC(=O)O)c1cc(C)c(Oc2ccc(O)c(C(C)CC)c2)c(C)c1 (stereo not drawn) [Example 18, {[4-(3-sec-Butyl-4-hydroxy-phenoxy)-3,5-dimethyl-phenyl]-ethoxycarbonyl-amino}-acetic acid] |  |  | 8.90 | 12.97 | 16.87 | 18.6 | 23 | 42.6 | 6.62 | 9.44
CCOC(=O)N(CC(=O)O)c1cc(Cl)c(Oc2ccc(O)c(C(=O)c3ccc(Cl)cc3)c2)c(Cl)c1 [Example 20, ({3,5-Dichloro-4-[3-(4-chloro-benzoyl)-4-hydroxy-phenoxy]-phenyl}-ethoxycarbonyl-amino)-acetic acid] |  |  | 15.74 | 21.47 | 18.49 | 40.7 | 87.7 | 81.2 | 10.42 | 19.9
CCC(C)c1cc(Oc2c(C)cc(N(CC(=O)O)CC(=O)O)cc2C)ccc1O (stereo not drawn) [Example 21, {[4-(3-sec-Butyl-4-hydroxy-phenoxy)-3,5-dimethyl-phenyl]-carboxymethyl-amino}-acetic acid] |  |  | 56.81 | 110.66 | 93.53 | 153 | 202 | 148 | 17.17 | 33.4
CCC(C)c1cc(Oc2c(Cl)cc(N(CC(=O)O)C(=O)Oc3ccc(O)cc3)cc2Cl)ccc1O (stereo not drawn) [Example 23, [[4-(3-sec-Butyl-4-hydroxy-phenoxy)-3,5-dichloro-phenyl]-(4-hydroxy-phenoxycarbonyl)-amino]-acetic acid] | 9.26 | 2.6 |  |  |  |  |  |  |  | 
CCOC(=O)N(CC(=O)O)c1cc(Cl)c(Oc2ccc(O)c(C(=O)c3ccc(C(C)(C)C)cc3)c2)c(Cl)c1 [Example 24, ({4-[3-(4-tert-Butyl-benzoyl)-4-hydroxy-phenoxy]-3,5-dichloro-phenyl}-ethoxycarbonyl-amino)-acetic acid] |  |  | 20.00 | 50.00 | 70.00 | 40 | 100 | 75 | 10.00 | 20
CCOC(=O)N(CC(=O)O)c1cc(Cl)c(Oc2ccc(O)c(C(=O)c3cccc(Cl)c3)c2)c(Cl)c1 [Example 25, ({3,5-Dichloro-4-[3-(3-chloro-benzoyl)-4-hydroxy-phenoxy]-phenyl}-ethoxycarbonyl-amino)-acetic acid] |  |  | 8.55 | 12.70 | 7.15 | 26.3 | 70.1 | 51.7 | 4.22 | 10.9
CCC(C)c1cc(Oc2c(Cl)cc(N(CC(=O)O)CC(=O)O)cc2Cl)ccc1O (stereo not drawn) [Example 26, {[4-(3-sec-Butyl-4-hydroxy-phenoxy)-3,5-dichloro-phenyl]-carboxymethyl-amino}-acetic acid] | 176 | 28.1 |  |  |  |  |  |  |  | 
O=C(O)CN(CC(=O)O)c1cc(Cl)c(Oc2ccc(O)c(C(=O)c3ccc(Cl)cc3)c2)c(Cl)c1 [Example 28, (Carboxymethyl-{3,5-dichloro-4-[3-(4-chloro-benzoyl)-4-hydroxy-phenoxy]-phenyl}-amino)-acetic acid] |  |  | 14.71 | 25.77 | 33.47 | 20.9 | 45.4 | 46.1 | 8.97 | 10.4
CC(C)c1cc(Oc2c(Cl)cc(N(CC(=O)O)CC(=O)O)cc2Cl)ccc1O [Example 31, {Carboxymethyl-[3,5-dichloro-4-(4-hydroxy-3-isopropyl-phenoxy)-phenyl]-amino}-acetic acid] |  |  | 17.06 | 50.99 | 46.21 | 27.8 | 64.3 | 75.2 | 8.17 | 12.1

— patent US8420851B2, “Selective TR-β 1 agonist” (Cadila Healthcare Limited, priority 2006, dated 2013)
